Our source for the IC50 values is ChEMBL document CHEMBL5728299, “Compounds and compositions for inhibiting the activity of SHP2” (2021).

The test can be described thus: After 30-60 minutes incubation at 25° C., the surrogate substrate DiFMUP (Invitrogen, cat #D6567) was added to the reaction and incubated at 25° C. for 30 minutes. The reaction was then quenched by the addition of 5 μl of a 160 μM solution of bpV(Phen) (Enzo Life Sciences cat #ALX-270-204). The fluorescence signal was monitored using a microplate reader (Envision, Perki-Elmer) using excitation and emission wavelengths of 340 nm and 450 nm, respectively. The inhibitor dose response curves were analyzed using normalized IC50 regression curve fitting with control based normalization.

In general, IC50 refers to the concentration at which inhibition is half-maximal. Read a low IC50 as higher potency. `CC1(CN)CCN(c2nnc(Sc3cccc(NC(=O)c4cnc5ccccn5c4=O)c3Cl)c(N)n2)CC1` registered an IC50 of 173 nM.
